Results as given in PubChem BioAssay (NCI).
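The compound was tested at five concentrations on cells cultured in 96-well plates, with a 48-hour exposure period. Definition used: TGI = concentration required for complete inhibition of growth.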

Assays:
Experiment in all cases: NCI anticancer screen, dose series, 48 h
[1] = system: DMS 273 small cell lung
[2] = system: KM12 colon
[3] = system: DLD-1 colon
[4] = system: IGROV1 ovarian
[5] = system: SNB-19 CNS
[6] = system: NCI-H460 lung
[7] = system: SF-268 CNS
[8] = system: RXF 393 renal
[9] = system: OVCAR-8 ovarian
[10] = system: MALME-3M melanoma
[11] = system: HT29 colon
[12] = system: M19-MEL melanoma
[13] = system: CAKI-1 renal
[14] = system: HOP-18 NSCLC
[15] = system: CCRF-CEM leukemia
[16] = system: NCI-H23 lung
[17] = system: SF-295 CNS
[18] = system: SW-620 colon
[19] = system: UACC-257 melanoma
[20] = system: KM20L2 colon
[21] = system: TK-10 renal
[22] = system: NCI-H522 lung
[23] = system: OVCAR-5 ovarian
[24] = system: K-562 leukemia
[25] = system: U251 CNS
[26] = system: UACC-62 melanoma
[27] = system: SNB-78 CNS
[28] = system: LOX IMVI melanoma
[29] = system: HL-60(TB) leukemia
[30] = system: XF 498 CNS
[31] = system: MOLT-4 leukemia
[32] = system: HCT-116 colon
[33] = system: SR leukemia
[34] = system: 786-0 renal
[35] = system: OVCAR-4 ovarian
[36] = system: NCI-H226 lung
[37] = system: SK-MEL-28 melanoma
[38] = system: HOP-92 NSCLC
[39] = system: OVCAR-3 ovarian
[40] = system: SK-MEL-5 melanoma
[41] = system: HCT-15 colon
[42] = system: RPMI-8226 leukemia
[43] = system: HCC-2998 colon
[44] = system: HOP-62 NSCLC
[45] = system: ACHN renal
[46] = system: M14 melanoma
[47] = system: COLO 205 colon
[48] = system: A549 NSCLC
[49] = system: LXFL 529 NSCLC
[50] = system: A498 renal
[51] = system: SNB-75 CNS
[52] = system: SK-MEL-2 melanoma
[53] = system: SN12C renal
[54] = system: SF-539 CNS
[55] = system: EKVX NSCLC
[56] = system: SK-OV-3 ovarian
[57] = system: UO-31 renal
[58] = system: DMS 114 small cell lung

CN(NC1OC(CO)C(O)C(O)C1O)c1ccccc1 (stereo unspecified)
TGI [1]: > 100 µM
TGI [2]: > 100 µM
TGI [3]: > 100 µM
TGI [4]: > 100 µM
TGI [5]: > 100 µM
TGI [6]: > 100 µM
TGI [7]: > 100 µM
TGI [8]: > 100 µM
TGI [9]: > 100 µM
TGI [10]: > 100 µM
TGI [11]: > 100 µM
TGI [12]: > 100 µM
TGI [13]: > 100 µM
TGI [14]: > 100 µM
TGI [15]: > 100 µM
TGI [16]: > 100 µM
TGI [17]: > 100 µM
TGI [18]: > 100 µM
TGI [19]: > 100 µM
TGI [20]: > 100 µM
TGI [21]: > 100 µM
TGI [22]: > 100 µM
TGI [23]: > 100 µM
TGI [24]: > 100 µM
TGI [25]: > 100 µM
TGI [26]: > 100 µM
TGI [27]: > 100 µM
TGI [28]: > 100 µM
TGI [29]: > 100 µM
TGI [30]: 30.6 µM
TGI [31]: > 100 µM
TGI [32]: > 100 µM
TGI [33]: > 100 µM
TGI [34]: > 100 µM
TGI [35]: > 100 µM
TGI [36]: > 100 µM
TGI [37]: > 100 µM
TGI [38]: > 100 µM
TGI [39]: > 100 µM
TGI [40]: > 100 µM
TGI [41]: > 100 µM
TGI [42]: > 100 µM
TGI [43]: > 100 µM
TGI [44]: > 100 µM
TGI [45]: > 100 µM
TGI [46]: > 100 µM
TGI [47]: > 100 µM
TGI [48]: > 100 µM
TGI [49]: > 100 µM

CCOC(=O)c1cnc2c(ccc3[nH]cccc32)c1=O
TGI [50]: > 100 µM
TGI [1]: > 100 µM
TGI [2]: > 100 µM
TGI [3]: > 100 µM
TGI [51]: > 100 µM
TGI [4]: > 100 µM
TGI [5]: > 100 µM
TGI [6]: > 100 µM
TGI [7]: > 100 µM
TGI [8]: > 100 µM
TGI [9]: > 100 µM
TGI [10]: > 100 µM
TGI [11]: > 100 µM
TGI [12]: > 100 µM
TGI [14]: > 100 µM
TGI [15]: > 100 µM
TGI [16]: > 100 µM
TGI [52]: > 100 µM
TGI [53]: > 100 µM
TGI [18]: > 100 µM
TGI [19]: > 100 µM
TGI [20]: > 100 µM
TGI [21]: > 100 µM
TGI [22]: > 100 µM
TGI [23]: > 100 µM
TGI [24]: > 100 µM
TGI [25]: > 100 µM
TGI [54]: > 100 µM
TGI [55]: > 100 µM
TGI [26]: > 100 µM
TGI [27]: > 100 µM
TGI [28]: > 100 µM
TGI [29]: > 100 µM
TGI [56]: > 100 µM
TGI [57]: > 100 µM
TGI [31]: > 100 µM
TGI [32]: > 100 µM
TGI [58]: > 100 µM
TGI [33]: > 100 µM
TGI [34]: > 100 µM
TGI [35]: > 100 µM
TGI [37]: > 100 µM
TGI [39]: > 100 µM
TGI [40]: > 100 µM
TGI [41]: > 100 µM
TGI [43]: > 100 µM
TGI [44]: > 100 µM
TGI [45]: > 100 µM
TGI [46]: > 100 µM
TGI [47]: > 100 µM
TGI [48]: > 100 µM
TGI [49]: > 100 µM
